Experimental data from US20070149593A1 (Alcon, Inc., priority 2005, published 2007).

System: FGFR
Test: Kinase inhibition in cell-free enzymatic assay, FGFR
Format: biochemical
Settings: 1 mM ATP

## Cc1ccc(F)c(NC(=O)Nc2ccc(-c3cccc4[nH]nc(N)c34)cc2)c1 [RTKi, N-[4-(3-amino-1H-indazol-4-yl)phenyl]-N′-(2-fluoro-5-methylphenyl)urea]
  IC50: > 12.5 µM
